Results reported in US4577016A, “Process for the preparation of penem derivatives” (Farmitalia Carlo Erba S.p.A., priority 1982, dated 1986).
Structures can show the parent of a compound that is named as a salt.

How the values were obtained:
Type in all cases: cell-based
Gram-positive bacteria = assay: activity against Gram-positive bacteria; settings: in words
Gram-negative bacteria = assay: minimal inhibiting concentrations against Gram-negative bacteria; settings: in words
[1] = test system: penicillinase non-producer Staphylococcus aureus; assay: minimal inhibiting concentration against penicillinase non-producer Staphylococcus aureus; settings: sodium salt
[2] = test system: penicillinase producer Staphylococcus aureus; assay: minimal inhibiting concentration against penicillinase producer Staphylococcus aureus; settings: sodium salt
Streptococcus pyogenes = assay: minimal inhibiting concentration against Streptococcus pyogenes; settings: sodium salt
Streptococcus pneumoniae = assay: minimal inhibiting concentration against Streptococcus pneumoniae; settings: sodium salt
Escherichia coli TEM = assay: activity against Escherichia coli TEM; settings: in words
Escherichia coli 1507 E = assay: activity against Escherichia coli 1507 E; settings: in words
[3] = test system: Klebsiella pneumoniae ATCC 10031; assay: activity against Klebsiella pneumoniae ATCC 10031; settings: in words
Proteus vulgaris X 20 = assay: activity against Proteus vulgaris X 20; settings: in words

## C[C@@H](O)[C@H]1C(=O)N2C(C(=O)O)=C(CSc3nnc(SCC(=O)O)s3)S[C@H]12 [(5R,6S)-6-[1(R)-hydroxyethyl]-2-(5-carboxymethylthio-1,3,4-thiadiazol-2-yl)-thiomethyl-penem-3-carboxylic acid]
Gram-positive bacteria
  minimal inhibiting concentrations against Gram-positive bacteria: particularly favourable values
Gram-negative bacteria
  minimal inhibiting concentrations against Gram-negative bacteria: particularly favourable values

## C[C@@H](O)[C@H]1C(=O)N2C(C(=O)O)=C(CSc3nnnn3CCC(N)=O)S[C@H]12 [(5R,6S)-6-[1(R)-hydroxyethyl]-2-[1-(2-aminocarbonylethyl)-1,2,3,4-tetrazol-5-yl]-thiomethyl-penem-3-carboxylic acid]
Gram-positive bacteria
  minimal inhibiting concentrations against Gram-positive bacteria: particularly favourable values
Gram-negative bacteria
  minimal inhibiting concentrations against Gram-negative bacteria: particularly favourable values

## C[C@@H](O)[C@H]1C(=O)N2C(C(=O)O)=C(CSc3ccc4nnnn4n3)S[C@H]12 [Sodium(5R,6S)-6-[1(R)-hydroxyethyl]-2-(tetrazolo[1,5-b]-pyridazin-6-yl)-thiomethyl-penem-3-carboxylate]
[1]
  MIC: 4 ng/mL
[2]
  MIC: 4 ng/mL
Streptococcus pyogenes
  MIC: 2 ng/mL
Streptococcus pneumoniae
  MIC: 2 ng/mL

## C[C@@H](O)[C@H]1C(=O)N2C(C(=O)O)=C(CSc3nnnn3C)S[C@H]12 [(5R,6S)-6-[1(R)-hydroxyethyl]-2-[1-methyl-1,2,3,4-tetrazol-5-yl)-thiomethyl]-penem-3-carboxylic acid]
Gram-positive bacteria
  minimal inhibiting concentrations against Gram-positive bacteria: particularly favourable values
Gram-negative bacteria
  minimal inhibiting concentrations against Gram-negative bacteria: particularly favourable values

## C[C@@H](O)[C@H]1C(=O)N2C(C(=O)O)=C(CSc3ccc4nnnn4n3)S[C@H]12 [(5R,6S)-6-[1(R)-hydroxyethyl]-2-{tetrazolo[1,5-b]pyridazin-6-yl}-thiomethyl-penem-3-carboxylic acid]
Gram-positive bacteria
  activity against Gram-positive bacteria: particularly active

## C[C@@H](O)[C@H]1C(=O)N2C(C(=O)O)=C(CSc3nc(=O)c(O)nn3C)S[C@H]12 [(5R,6S)-6-[1(R)-hydroxyethyl]-2-(2-methyl-5-oxo-6-hydroxy-2,5-dihydro-1,2,4-triazin-3-yl)-thiomethyl-penem-3-carboxylic acid, disodium salt]
Escherichia coli TEM
  activity against Gram-negative bacteria: particularly favourable activity
Escherichia coli 1507 E
  activity against Gram-negative bacteria: particularly favourable activity
[3]
  activity against Gram-negative bacteria: particularly favourable activity
Proteus vulgaris X 20
  activity against Gram-negative bacteria: particularly favourable activity
